# From patent publication US10722512B2, “Combinations of histone deacetylase inhibitors and either HER2 inhibitors or PI3K inhibitors” (Acetylon Pharmaceuticals, Inc., priority 2013, dated 2020)
# Like-named read-outs stand apart in the source and are kept apart here.
# Experiments:
# [1] = system: panel of nearly 100 human tumor cell lines; assay: Anti-tumor activity in a panel of nearly 100 human tumor cell lines; type: cell-based; conditions: Her2+ breast cancer cells versus other major cancer types
# MDA-MB-453 [2] = assay: Breast cancer cell viability, 48 hours, MTA assay; type: cell-based; conditions: for IC50: Homo sapiens
# Description: (§1) Cell viabilities were used to calculate “Fraction Affected” (Fa) and “Combination Index” (CI) values using the Chou-Talalay method. Any combination with a CI value<0.70 at a Fa value between 0.25 and 0.75 was defined as positive synergy.
# Hs578T = assay: Breast cancer cell viability, 48 hours, MTA assay; type: cell-based; conditions: for IC50: Homo sapiens, Hs-578T
# Description: as §1
# MDA-MB-361 = assay: Breast cancer cell viability, 48 hours, MTA assay; type: cell-based; conditions: Homo sapiens
# Description: as §1
# MX-1 = assay: Breast cancer cell viability, 48 hours, MTA assay; type: cell-based; conditions: for IC50: Homo sapiens
# Description: as §1
# T-47D* = assay: Breast cancer cell viability, 48 hours, MTA assay; type: cell-based; conditions: for IC50: Homo sapiens, T47D
# Description: as §1
# BT-549 = assay: Breast cancer cell viability, 48 hours, MTA assay; type: cell-based; conditions: for IC50: Homo sapiens
# Description: as §1
# Bcap-37 = assay: Breast cancer cell viability, 48 hours, MTA assay; type: cell-based; conditions: for IC50: Homo sapiens
# Description: as §1
# BT474 = assay: Breast cancer cell viability, 48 hours, MTA assay; type: cell-based; conditions: for IC50: Homo sapiens
# Description: as §1
# HCC38 = assay: Breast cancer cell viability, 48 hours, MTA assay; type: cell-based; conditions: for IC50: Homo sapiens
# Description: as §1
# SK-BR-3 = assay: Breast cancer cell viability, 48 hours, MTA assay; type: cell-based; conditions: for IC50: Homo sapiens
# Description: as §1
# MDA-MB-436 = assay: Breast cancer cell viability, 48 hours, MTA assay; type: cell-based; conditions: Homo sapiens
# Description: as §1
# MDA-MB-231 = assay: Breast cancer cell viability, 48 hours, MTA assay; type: cell-based; conditions: Homo sapiens
# Description: as §1
# MDA-MB-468 = assay: Breast cancer cell viability, 48 hours, MTA assay; type: cell-based; conditions: for IC50: Homo sapiens
# Description: as §1
# ZR-75-1 = assay: Breast cancer cell viability, 48 hours, MTA assay; type: cell-based; conditions: for IC50: Homo sapiens
# Description: as §1
# HCC1937 = assay: Breast cancer cell viability, 48 hours, MTA assay; type: cell-based; conditions: for IC50: Homo sapiens
# Description: as §1
# MCF-7 = assay: Breast cancer cell viability, 48 hours, MTA assay; type: cell-based; conditions: for IC50: Homo sapiens
# Description: as §1
# [3] = system: Her2 protein, p-EGFR, p-AKT in MDA-MB-453; assay: Her2 protein, p-EGFR and p-AKT levels after treatment; type: cell-based; conditions: Her2+ breast cancer cell line MDA-MB-453
# [4] = Potentiation of PI3K inhibitor GDC-0941 by HDAC6 selective inhibitors (Example 7); type: cell-based; conditions: non-cytotoxic concentrations of the HDAC6 inhibitor
# MDA-MB-453 [5] = assay: Potentiation effect of HDAC6 inhibitors on Her2+ breast cancer cell lines; type: cell-based; conditions: for cytotoxicity of HDAC6 inhibitor alone: MDA-MB-453, at the tested concentrations
# Method: (§2) The IC50 (Inhibitory Concentration at which 50% of the cells are viable) values of these 4 anti-breast cancer compounds were calculated in the presence of increasing concentrations of a HDAC6 inhibitor.
# BT-474 = assay: as above; type: cell-based; conditions: for cytotoxicity of HDAC6 inhibitor alone: BT-474, at the tested concentrations
# Method: as §2
# [6] = system: A549 and MDA-MB-231 cancer cells; assay: Migration assay; type: cell-based; conditions: in the presence or absence of epidermal growth factor (EGF)
# Method: Many cultured cancer cells are able to migrate across a membrane and this activity indicates the metastatic potential of the cancer cells. The migration of two cancer cells, A549 and MDA-MB-231, were compared in the presence or absence of a HDAC6 inhibitor. The cancer cells were seeded and grown on a membrane surface, and the cell numbers on the other side of the membrane were counted under a microscope after 12 hours. […] In the study, an HDAC inhibitor was added to the cells either 2 hours before or when the migration was measured. The effect of HDAC6 inhibitor on Epidermal Growth Factor (EGF) stimulated cancer cell migration using 20 ng/ml of EGF in the assay was investigated.
# The protocol for the Migration Assay was as follows. The compounds were prepared in DMSO at 400× stock of the final required concentrations.
# 200 μl of warm basal RPMI1640 medium was added to the interior of the inserts, allowed to rehydrate for 2 hours in a humidified tissue culture incubator at 37° C., 5% CO2 atmosphere. […] The number of migrated cells were counted under a microscope in five fields at 100× magnification. The viable cells were seeded in the 96 well plate with the same treatment as in the migration assay were measured using CTG (Cell Titer Glow).
# HDAC6 = biological target: T1, HDAC6 (Homo sapiens, UniProt Q9UBN7); assay: HDAC enzyme assays; type: biochemical
# T1 construct: purchased BPS Biosciences
# T1 sequence (Q9UBN7 whole entry): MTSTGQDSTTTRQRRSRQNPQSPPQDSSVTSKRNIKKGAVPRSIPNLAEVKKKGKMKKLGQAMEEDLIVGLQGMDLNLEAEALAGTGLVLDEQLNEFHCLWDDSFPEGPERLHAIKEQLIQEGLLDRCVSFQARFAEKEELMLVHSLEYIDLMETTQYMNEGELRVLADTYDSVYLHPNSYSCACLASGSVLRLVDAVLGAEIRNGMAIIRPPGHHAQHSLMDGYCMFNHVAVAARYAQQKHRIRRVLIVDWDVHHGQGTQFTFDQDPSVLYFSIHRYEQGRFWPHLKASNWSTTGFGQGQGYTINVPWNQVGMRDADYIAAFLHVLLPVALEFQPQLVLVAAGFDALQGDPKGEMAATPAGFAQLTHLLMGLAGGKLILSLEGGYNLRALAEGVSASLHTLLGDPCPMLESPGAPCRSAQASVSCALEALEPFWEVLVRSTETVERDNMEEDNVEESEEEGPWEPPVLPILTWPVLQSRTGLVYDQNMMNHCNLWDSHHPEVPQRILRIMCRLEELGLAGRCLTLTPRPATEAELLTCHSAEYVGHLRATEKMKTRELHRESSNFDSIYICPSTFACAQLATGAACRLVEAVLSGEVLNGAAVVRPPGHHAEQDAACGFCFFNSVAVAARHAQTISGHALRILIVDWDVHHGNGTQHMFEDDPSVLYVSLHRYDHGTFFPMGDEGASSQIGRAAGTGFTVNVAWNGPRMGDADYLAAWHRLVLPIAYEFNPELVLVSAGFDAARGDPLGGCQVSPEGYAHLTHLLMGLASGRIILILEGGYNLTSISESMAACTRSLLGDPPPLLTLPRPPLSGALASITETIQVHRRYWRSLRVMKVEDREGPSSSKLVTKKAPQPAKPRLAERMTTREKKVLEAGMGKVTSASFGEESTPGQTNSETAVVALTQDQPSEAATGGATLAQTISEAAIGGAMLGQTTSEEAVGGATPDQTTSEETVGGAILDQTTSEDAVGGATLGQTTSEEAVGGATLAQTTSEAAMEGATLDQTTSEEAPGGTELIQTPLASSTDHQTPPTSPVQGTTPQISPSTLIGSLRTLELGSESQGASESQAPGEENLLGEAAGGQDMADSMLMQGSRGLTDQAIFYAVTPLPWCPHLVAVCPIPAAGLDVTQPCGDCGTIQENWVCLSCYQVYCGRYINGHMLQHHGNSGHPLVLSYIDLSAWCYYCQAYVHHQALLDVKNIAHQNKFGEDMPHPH
# Method: Compounds for testing were diluted in DMSO to 50 fold the final concentration and a ten point three fold dilution series was made. […] The final enzyme concentrations used in these assays were 3.3 ng/ml (HDAC1), 0.2 ng/ml (HDAC2), 0.08 ng/ml (HDAC3) and 2 ng/ml (HDAC6). […] The IC50 was determined using Graph Pad Prism by a four parameter curve fit.
# [7] = system: Her2+ breast cancer cells; type: cell-based
smiles,measurement,setting,value
"O=C(CCCCCCNC(=O)c1cnc(N(c2ccccc2)c2ccccc2)nc1)NO [Compound A, 2-(diphenylamino)-N-(7-(hydroxyamino)-7-oxoheptyl) pyrimidine-5-carboxamide]",sensitivity of Her2+ breast cancer cells within the panel,[1],among the most sensitive cells
same,IC50,"MDA-MB-453 [2]; MDA-MB-453, 48 h",1.25 µM
same,IC50,Hs578T; 48 h,5.57 µM
same,IC50,"MDA-MB-361; MDA-MB-361, 48 h",4.51 µM
same,IC50,"MX-1; MX1, 48 h",6.38 µM
same,IC50,T-47D*; 48 h,5 µM
same,IC50,"BT-549; BT-549, 48 h",8.97 µM
same,IC50,"Bcap-37; Bcap37, 48 h",7.66 µM
same,IC50,"BT474; BT-474, 48 h",2.32 µM
same,IC50,"HCC38; HCC38, 48 h",7.76 µM
same,IC50,"SK-BR-3; SK-BR-3, 48 h",1.94 µM
same,IC50,"MDA-MB-436; MDA-MB-436, 48 h",25.7 µM
same,IC50,"MDA-MB-231; MDA-MB-231, 48 h",7.49 µM
same,IC50,"MDA-MB-468; MDA-MB-468, 48 h",14.9 µM
same,IC50,"ZR-75-1; ZR-75-1, 48 h",3.57 µM
same,IC50,"HCC1937; HCC1937, 48 h",11.2 µM
same,IC50,"MCF-7; MCF7, 48 h",8.95 µM
same,"Her2 protein, p-EGFR and p-AKT levels",[3],"decrease of Her2 protein, p-EGFR, and p-AKT"
same,potentiation of GDC-0941 (decrease in the IC50 value),[4],GDC-0941 becomes more potent
same,cytotoxicity of HDAC6 inhibitor alone,MDA-MB-453 [5],not cytotoxic
same,cytotoxicity of HDAC6 inhibitor alone,BT-474,not cytotoxic
"O=C(NO)c1cnc(NC2(c3cccc(F)c3)CCCCC2)nc1 [Compound C, 2-((1-(3-fluorophenyl)cyclohexyl)amino)-N-hydroxypyrimidine-5-carboxamide]",cancer cell migration,[6],blocked cancer cell migration
same,potentiation of GDC-0941 (decrease in the IC50 value),[4],GDC-0941 becomes more potent
same,potency as HDAC6 selective inhibitor,HDAC6,low nM potency
same,cytotoxicity of HDAC6 inhibitor alone,MDA-MB-453 [5],not cytotoxic
same,sensitization to lapatinib and PI3K inhibitors,"MDA-MB-453 [5]; MDA-MB-453, lapatinib, IPI-145, GDC-0941 and CAL-101",able to sensitize
same,cytotoxicity of HDAC6 inhibitor alone,BT-474,not cytotoxic
same,sensitization to lapatinib and PI3K inhibitors,"BT-474; BT-474, lapatinib, IPI-145, GDC-0941 and CAL-101",able to sensitize
CS(=O)(=O)CCNCc1ccc(-c2ccc3ncnc(Nc4ccc(OCc5cccc(F)c5)c(Cl)c4)c3c2)o1 [Lapatinib],IC50,"MDA-MB-453 [2]; MDA-MB-453, single agent, 48 hours, read-out: IC50",0.13 µM
same,Synergy,"MDA-MB-453 [2]; MDA-MB-453, combination with cmpd A, 48 hours, Chou-Talalay CI",S (Any combination with a CI value<0.70 at a Fa value between 0.25 and 0.75 was defined as positive synergy)
same,IC50,"Hs578T; Hs578T, single agent, 48 hours, read-out: IC50",5.77 µM
same,Synergy,"Hs578T; Hs578T, combination with cmpd A, 48 hours, Chou-Talalay CI",S (Any combination with a CI value<0.70 at a Fa value between 0.25 and 0.75 was defined as positive synergy)
same,IC50,"MDA-MB-361; MDA-MB-361, single agent, 48 hours, read-out: IC50",9.31 µM
same,IC50,"MX-1; MX1, MX-1, single agent, 48 hours, read-out: IC50",1.01 µM
same,Synergy,"MX-1; MX-1, combination with cmpd A, 48 hours, Chou-Talalay CI",S (Any combination with a CI value<0.70 at a Fa value between 0.25 and 0.75 was defined as positive synergy)
same,IC50,"T-47D*; T-47D*, single agent, 48 hours, read-out: IC50",23.3 µM
same,Synergy,"T-47D*; T-47D*, combination with cmpd A, 48 hours, Chou-Talalay CI",S (Any combination with a CI value<0.70 at a Fa value between 0.25 and 0.75 was defined as positive synergy)
same,Synergy,"BT-549; BT-549, combination with cmpd A, 48 hours, Chou-Talalay CI",S (Any combination with a CI value<0.70 at a Fa value between 0.25 and 0.75 was defined as positive synergy)
same,IC50,"BT-549; BT-549, single agent, 48 hours, read-out: IC50",6.53 µM
same,Synergy,"Bcap-37; Bcap-37, combination with cmpd A, 48 hours, Chou-Talalay CI",S (Any combination with a CI value<0.70 at a Fa value between 0.25 and 0.75 was defined as positive synergy)
same,IC50,"Bcap-37; Bcap37, Bcap-37, single agent, 48 hours, read-out: IC50",10.9 µM
same,Synergy,"BT474; BT474, combination with cmpd A, 48 hours, Chou-Talalay CI",S (Any combination with a CI value<0.70 at a Fa value between 0.25 and 0.75 was defined as positive synergy)
same,IC50,"BT474; BT-474, BT474, single agent, 48 hours, read-out: IC50",0.04 µM
same,Synergy,"HCC38; HCC38, combination with cmpd A, 48 hours, Chou-Talalay CI",S (Any combination with a CI value<0.70 at a Fa value between 0.25 and 0.75 was defined as positive synergy)
same,IC50,"HCC38; HCC38, single agent, 48 hours, read-out: IC50",5.05 µM
same,IC50,"SK-BR-3; SK-BR-3, single agent, 48 hours, read-out: IC50",0.06 µM
same,Synergy,"SK-BR-3; SK-BR-3, combination with cmpd A, 48 hours, Chou-Talalay CI",S (Any combination with a CI value<0.70 at a Fa value between 0.25 and 0.75 was defined as positive synergy)
same,IC50,"MDA-MB-436; MDA-MB-436, single agent, 48 hours, read-out: IC50",9.31 µM
same,IC50,"MDA-MB-231; MDA-MB-231, single agent, 48 hours, read-out: IC50",7.17 µM
same,IC50,"MDA-MB-468; MDA-MB-468, single agent, 48 hours, read-out: IC50",5.6 µM
same,Synergy,"MDA-MB-468; MDA-MB-468, combination with cmpd A, 48 hours, Chou-Talalay CI",S (Any combination with a CI value<0.70 at a Fa value between 0.25 and 0.75 was defined as positive synergy)
same,IC50,"ZR-75-1; ZR-75-1, single agent, 48 hours, read-out: IC50",2.69 µM
same,Synergy,"ZR-75-1; ZR-75-1, combination with cmpd A, 48 hours, Chou-Talalay CI",S (Any combination with a CI value<0.70 at a Fa value between 0.25 and 0.75 was defined as positive synergy)
same,Synergy,"HCC1937; HCC1937, combination with cmpd A, 48 hours, Chou-Talalay CI",S (Any combination with a CI value<0.70 at a Fa value between 0.25 and 0.75 was defined as positive synergy)
same,IC50,"HCC1937; HCC1937, single agent, 48 hours, read-out: IC50",5.56 µM
same,IC50,"MCF-7; MCF7, MCF-7, single agent, 48 hours, read-out: IC50",5.78 µM
same,Synergy,"MCF-7; MCF-7, combination with cmpd A, 48 hours, Chou-Talalay CI",S (Any combination with a CI value<0.70 at a Fa value between 0.25 and 0.75 was defined as positive synergy)
same,cytotoxicity of the combination with Compound A,[7],synergistic cytotoxicity
